Data on one molecule can be found in patent US9382216B2, “Substituted morpholines as modulators for the calcium sensing receptor” (LUPIN LIMITED, priority 2011, dated 2016).

In the assay the target is T1, hCaSR (Calcium sensing receptor) in stably transfected HEK293 cells (Homo sapiens, UniProt P41180).
T1 construct: expressed in transfected cells; host or cells: HEK293 (stably transfected)
T1 sequence (P41180 20-1078): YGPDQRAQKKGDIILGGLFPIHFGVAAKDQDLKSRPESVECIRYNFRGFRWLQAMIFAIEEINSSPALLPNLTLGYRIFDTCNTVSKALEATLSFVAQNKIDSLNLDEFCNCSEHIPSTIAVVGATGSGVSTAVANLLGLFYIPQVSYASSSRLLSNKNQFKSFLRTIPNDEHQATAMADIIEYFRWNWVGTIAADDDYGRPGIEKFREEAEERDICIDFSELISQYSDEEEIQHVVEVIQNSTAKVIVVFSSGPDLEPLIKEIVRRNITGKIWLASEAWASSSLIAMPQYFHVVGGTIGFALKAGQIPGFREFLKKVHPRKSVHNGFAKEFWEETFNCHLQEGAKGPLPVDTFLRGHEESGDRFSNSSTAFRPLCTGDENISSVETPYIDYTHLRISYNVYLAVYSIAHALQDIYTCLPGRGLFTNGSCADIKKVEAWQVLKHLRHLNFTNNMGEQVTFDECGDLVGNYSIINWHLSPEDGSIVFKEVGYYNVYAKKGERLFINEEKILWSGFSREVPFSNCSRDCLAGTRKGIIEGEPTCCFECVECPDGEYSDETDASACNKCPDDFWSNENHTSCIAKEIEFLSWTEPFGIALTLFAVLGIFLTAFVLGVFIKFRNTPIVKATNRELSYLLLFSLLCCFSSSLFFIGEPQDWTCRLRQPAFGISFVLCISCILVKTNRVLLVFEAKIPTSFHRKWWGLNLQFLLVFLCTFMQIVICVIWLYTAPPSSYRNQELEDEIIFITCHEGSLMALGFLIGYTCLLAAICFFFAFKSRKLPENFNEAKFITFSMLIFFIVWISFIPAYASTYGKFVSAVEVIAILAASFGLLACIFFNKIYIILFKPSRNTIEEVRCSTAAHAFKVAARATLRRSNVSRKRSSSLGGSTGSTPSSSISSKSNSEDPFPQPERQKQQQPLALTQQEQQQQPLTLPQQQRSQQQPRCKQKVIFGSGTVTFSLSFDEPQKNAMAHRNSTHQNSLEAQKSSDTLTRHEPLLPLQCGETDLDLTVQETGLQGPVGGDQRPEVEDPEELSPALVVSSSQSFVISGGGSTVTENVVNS
The assay is described as follows: In-vitro assay of calcimimetics through modulation of calcium sensing receptor (CaSR): increase in intracellular calcium, FLIPR. In kind it is cell-based. Conditions: HEK293 cells expressing hCaSR; intracellular calcium (Fluo4NW, FLIPR); 0.3 mM CaCl2; 8-point assay; read-out: EC50 in range. On the procedure: In-Vitro Assay Method of Calcimemtics Through Modulation of Calcium Sensing Receptor (CaSR):
The ability of the compounds to modulate Calcium sensing receptor is determined by measuring an increase in intracellular calcium [Ca^2+i]. Stably transfected HEK293 cells expressing hCaSR_pTriEx-3 hygro vector are developed. Cells are grown overnight on a 96-well plate to 80% confluency in Ham's F12 containing 20% FBS at 37° C., 5% CO2 Subsequently, cells are washed extensively with 20 mM HEPES buffer containing 126 mM NaCl2, 1 mM MgCl2 and 4 mM KCl2 to remove serum components that might interfere with the assay. Cells are loaded with calcium sensing Fluo4NW dye in HEPES base buffer containing 0.1% BSA and 1 mg/ml glucose for 30 minutes to measure changes in intracellular calcium. The activities of the compounds are measured in FLIPR using 0.3 mM CaCl2 in 20 mM HEPES base buffer. The effectiveness of the compound to modulate receptor activity is determined by calculating the EC50 responses for that compound in an 8-point assay and plotted using GraphPad Prism 5.
The compounds prepared were tested using the above assay procedure and the results obtained are given below.

Molecules are shown by their SMILES. pEC50: −log10 of the molar value. Structures can show the parent of a compound that is named as a salt. A value given as a limit tells only on which side of the number the result lay.

On to `COc1ccc(N2CC(CN[C@H](C)c3cccc4ccccc34)OCC2=O)cc1F` (stereo partly drawn) [compound 61, 4-(3-Fluoro-4-methoxyphenyl)-6-((((R)-1-(naphthalen-1-yl)ethyl)amino)methyl)morpholin-3-one hydrochloride], for which the negative logarithm of the EC50 (pEC50) (as a rule, the negative decadic logarithm of the EC50, by convention in mol/L) is over 7.70.
